One data set has as its target CLK2 (Mus musculus, UniProt O35491). Put plainly: Recombinant protein kinase assay, CLK2. Format: biochemical.
A short description of data set [1]: Pharmacokinetics and brain biodistribution of L41 after acute i.p. injection. Format: in vivo. The note with it: mouse, ip. How it is done:
To investigate the importance of DYRK1A in cognitive deficits shown by transgenic mouse models of DS, we used a series of low molecular weight pharmacological inhibitors, collectively known as leucettines ([Debdab et al., 2011]; [Tahtouh et al., 2012]; T. Tahtouh, unpublished).
re S1. Pharmacokinetics and brain biodistribution of L41 following acute intra-
zoom on the first 8 hours.
Disease Models & Mechanisms • Supplementary information

The subject of the next data set is Tg(Dyrk1a) mice. As to the kind of experiment: Novel object recognition (NOR) test in Tg(Dyrk1a) mice. It is filed as in vivo, mouse. The note with it: for Recovery in NOR test: 20 mg/kg daily i.p., 24 h retention delay.
A further data set concerns wt mice. As to the kind of experiment: Novel object recognition (NOR) test in wt mice. Format: in vivo, mouse. The note with it: 20 mg/kg daily i.p., 5, 12 or 19 days. How it is done: Behavioural studies were conducted in 12- to 20-week-old male animals. All assessments were scored blind to genotype and treatment, as recommended by the ARRIVE guidelines ([Karp et al., 2015]; [Kilkenny et al., 2010]). […] The final formulation was prepared just prior to use as a 2 mg/ml solution diluted in PEG300/water (50/45), to reach a final DMSO/PEG300/water 5/50/45 (v/v/v) mix. Treated animals received a daily dose (5, 12 or 19 days) of this formulation by i.p. injection of 20 mg/kg/day. Nontreated animals received the same formulation without L41.
The NOR task is based on the innate tendency of rodents to differentially explore a novel object over a familiar one ([Ennaceur and Delacour, 1988]). Day 1 was a habituation session. Mice freely explored the apparatus, a white circular arena (53 cm diameter) placed in a dimly lit testing room (40 lux). On day 2, the acquisition phase, mice were free to explore two identical objects for 10 min. Mice were then returned to their home cage for a 24 h retention interval. […] Object exploration was manually scored and defined as the orientation of the nose to the object at a distance <1 cm. For the retention phase, the percent of time spent exploring familiar versus novel objects was calculated to assess memory performance.

For another data set, the target named is T1, DYRK1A (Mus musculus, UniProt Q61214).
T1 construct: DYRK1A was purified from brain extracts by immunoprecipitation; from tissue; host or cells: mouse brain (wt, Tg(Dyrk1a), Ts65Dn)
As to the kind of experiment: Brain DYRK1A catalytic activity after treatment, wt mice. The settings on record: 19 days daily i.p. Format: in vivo. The method, then:
Protein kinase assays to measure the catalytic activity of DYRK1A in the brains of the animals treated with or without drugs were performed as follows: frozen half brains were homogenized in lysis buffer (1.2 ml/half brain) using Precellys® homogenizer tubes. After centrifugation at 2800 g for 2×15 s, 1 mg brain extract was incubated with 2 µg DYRK1A (H00001859 M01, Interchim) or GSK3-β (MBS8508391, Emelca Bioscience, France) antibodies at 4°C for 1 h under gentle rotation. Then, 20 µl protein G agarose beads (Thermo Fisher Scientific, France), previously washed three times with bead buffer (50 mM Tris pH 7.4, 5 mM NaF, 250 mM NaCl, 5 mM EDTA, 5 mM EGTA, 0.1% Nonidet P-40 and protease inhibitor cocktail from Roche, France), were added to the mix and gently rotated at 4°C for 30 min. After a 1 min spin at 10,000 g and removal of the supernatant, the pelleted immune complexes were washed three times with bead buffer, and a last time with Buffer C (60 mM β-glycerophosphate, 30 mM p-nitrophenolphosphate, 25 mM Mops pH 7.2, 5 mM EGTA, 15 mM MgCl2, 2 mM dithiothreitol, 0.1 mM sodium orthovanadate, 1 mM phenylphosphate, protease inhibitor cocktail). DYRK1A or GSK-3 immobilized on beads were assayed in buffer C as described in the Supplementary Materials and Methods with Woodtide ([…]) (1.5 µg/assay) or GSK3-tide ([…]pSED-EEE, where pS stands for phosphorylated serine) as substrates.

The next data set deals with Dyrk1a mRNA. Put plainly: Brain Dyrk1a mRNA expression by qPCR after treatment. The settings on record: 19 days daily i.p., Tg(Dyrk1a), Ts65Dn and wt brains. Format: in vivo, mouse. An excerpt: To validate the Tg(Dyrk1a) and Ts65Dn models in terms of DYRK1A expression and function, we first verified the expression levels of Dyrk1a mRNA (Fig. 4A) and DYRK1A protein (Fig. 4B) in brains derived from control or L41-treated animals (19 days, daily i.p.). Total mRNAs were extracted from brains and Dyrk1a, Gsk-3b and Rplp0 mRNAs were quantified by quantitative polymerase chain reaction (qPCR) with specific primers. […] We next measured DYRK1A catalytic activities from transgenic and wt brain protein extracts (Fig. 4C). […] As expected, DYRK1A activity was elevated by ∼1.5- to 1.8-fold in transgenic brains compared with wt brains (Fig. 4C).
Fig. 4. Dyrk1a mRNA and DYRK1A protein expression, and catalytic activity in Tg(Dyrk1a) and corresponding wt mice brains, and in Ts65Dn and corresponding wt mice brains. (A) mRNA expression. Total RNA was extracted, purified and reverse transcribed into cDNA. mRNA expression of Dyrk1a, Gsk-3b and reference Rplp0 was quantified by qPCR from the amplification of cDNA with specific primers (one primer annealing to an exon-exon junction). Results are presented as mean±s.e. of four to six measurements and are shown relative to Rplp0 expression, normalized to wt Gsk-3b expression. (B) Protein expression. Total proteins were extracted, resolved by SDS-PAGE and analysed by WB using antibodies directed against DYRK1A, GSK-3α/β and actin (loading control). […]
(In general: Quantitative PCR measures a nucleic acid by following its amplification.)

Sequence of CLK2 (O35491 whole entry): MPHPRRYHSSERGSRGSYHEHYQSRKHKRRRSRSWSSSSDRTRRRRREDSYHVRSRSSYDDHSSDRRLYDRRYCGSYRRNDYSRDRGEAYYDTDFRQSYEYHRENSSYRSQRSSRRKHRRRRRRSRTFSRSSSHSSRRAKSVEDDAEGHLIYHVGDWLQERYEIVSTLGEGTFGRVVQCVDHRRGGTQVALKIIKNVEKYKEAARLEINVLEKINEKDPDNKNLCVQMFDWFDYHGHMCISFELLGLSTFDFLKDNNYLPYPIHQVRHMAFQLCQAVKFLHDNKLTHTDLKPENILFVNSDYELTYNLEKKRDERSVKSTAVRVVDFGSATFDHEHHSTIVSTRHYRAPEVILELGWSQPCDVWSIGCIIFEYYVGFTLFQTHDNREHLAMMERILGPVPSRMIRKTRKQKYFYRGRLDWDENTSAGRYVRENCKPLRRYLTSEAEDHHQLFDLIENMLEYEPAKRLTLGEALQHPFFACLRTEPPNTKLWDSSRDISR

By IC50 is commonly meant the concentration at which inhibition is half-maximal. By half-life is commonly meant the time needed for the level to fall by half in the phase considered. Lower therefore signals fast loss. `O=C1NC(Nc2ccccc2)=N/C1=C\c1ccc2c(c1)OCO2` [L41]: at CLK2, the IC50 came to 130 nM. The half-life in data set [1] (Tg(Dyrk1a) transgenic and wild-type (wt) mice, plasma) was roughly 45 min. In data set [1] (in vivo), the “Blood brain barrier crossing” value is listed as “able to cross the blood brain barrier”; the “Differences in pharmacokinetics or biodistribution between transgenic and wt mice” value is recorded as “No differences”; the “L41 in brain extracts” value is “essentially undetectable”; the “Time of maximum brain concentration” value is listed as 20 min. Also, the “Time to elimination from brain after the maximum brain concentration” value in data set [1] (in vivo) amounted to 2 h. Further, in the data set with Tg(Dyrk1a) mice (5 days), the “Recovery in NOR test” value is reported as “only marginally”. In addition, in the data set with Tg(Dyrk1a) mice (12 days), the “Recovery in NOR test” value is “consistently”. The “Recovery in NOR test” value with Tg(Dyrk1a) mice (19 days) was “fully observed”. Moreover, the “Persistence of NOR rescue” value in the data set with Tg(Dyrk1a) mice (24 h after the last day of the 19 day treatment) is “rescuing effect was detectable”. Further, the “Persistence of NOR rescue” value in the data set on Tg(Dyrk1a) mice (48 h after the last day of the 19 day treatment) is reported as “no rescue”. In the data set with wt mice, the “Effect on NOR performance of wt animals” value is “no effect”. Further, the “Effect on brain DYRK1A activity” value at DYRK1A was “did not reduce”. The “Effect on Dyrk1a mRNA levels” value in the data set with Dyrk1a mRNA was “did not modify”.

(Values after paper PMC6176987, “Correction of cognitive deficits in mouse models of Down syndrome by a pharmacological inhibitor of DYRK1A” (Disease Models & Mechanisms, 2018).)
